“And” between values parts separate entries of the source, which are not always exact repeats. Equal values may be shown once. “Also recorded” adds a separate entry of the source. Read-outs that look alike come from different tables or passages of the source.
What was measured:
AF patients [1] = conditions: ACTIVE W; cited from earlier work
[2] = system: patients who have nonvalvular atrial fibrillation; conditions: VKAs, such as warfarin; cited from earlier work
AF patients [3] = conditions: SPORTIF III, cited from earlier work
AF patients [4] = conditions: SPORTIF V, cited from earlier work
[5] = system: patients with atrial fibrillation at risk of stroke; assay: RELY clinical trial (Randomized Evaluation of Long-term Anticoagulation Therapy); format: in vivo; conditions: for Stroke, systemic embolism, pulmonary embolism, myocardial infarction death or major bleed, Rate: net benefit
Text: The primary study outcome was stroke or systemic embolism. The primary safety outcome was major hemorrhage. Secondary outcomes were stroke, systemic embolism and death. […] All other bleeding was considered minor.
All analyses were based on intention-to-treat.

[6] = system: patients with chronic atrial fibrillation; assay: PETRO phase 2 12-week dose finding study; format: in vivo, human; conditions: in vivo
Text: Primary endpoints were bleeding events and changes in D-dimer. […] Minor bleeding was dose related.

[7] = system: patients with atrial fibrillation
Description: The PETRO-Ex study was conducted in 52 centers in the United States, Denmark, The Netherlands, and Sweden.
PETRO-Ex began while the PETRO study was ongoing and investigators were initially kept blinded to patient treatment group until PETRO was completed. Unblinding investigators to patient treatment was possible thereafter.
Data were summarized descriptively; no hypothesis was to be tested. Events were analyzed on the basis of the treatment at onset. Incidences were reported as of patients with events as well as normalized to 100 patient-years on the respective treatment.
Patients who were down titrated to 50 mg q.d. based on a glomerular filtration rate≦50 mL/min during PETRO were excluded from the long-term trial; patients down-titrated in other dose levels remained on the q.d. treatment at that dose.
The total exposure reflects both trials, PETRO and PETRO-Ex, together.

[8] = Clinical pharmacokinetics and pharmacodynamics of dabigatran etexilate; format: in vivo
Text: Ezekowitz M D, et al., Dabigatran with or without concomitant aspirin compared with warfarin alone in patients with nonvalvular atrial fibrillation (PETRO study), Am. […] The PETRO study is described below.
As noted above, management of warfarin therapy is complex, and failure to adequately monitor patients is associated with risk. […] It also interacts with many common foods, drugs and alcohol which alter its therapeutic effect, putting patients at risk of either a bleeding or thrombotic event. Therefore, warfarin therapy requires careful individualized dosing and frequent monitoring. The significant limitations of VKAs have created a need for an oral anticoagulant with a rapid onset of action, minimal drug interactions, and a predictable anticoagulation effect that needs no monitoring.
Peak levels are seen within 2-3 hours of oral administration. […] Steady-state is reached within 2-3 days with a twice daily regimen. […] The remainder undergoes conjugation with glucuronic acid to form acylglucuronides which are excreted primarily in the bile.

[9] = system: activated partial thromboplastin time (aPTT), ecarin clotting time, and thrombin clotting time; assay: Clotting time tests
Text: The anticoagulant effects parallel plasma concentrations.

[10] = ximelagatran 36 mg b.i.d. vs warfarin
[11] = individual patients with LFT abnormalities, # = with concomitant Bilirubin elevation to >2xULN

## CC(=O)CC(c1ccccc1)c1c(O)c2ccccc2oc1=O (racemic) [Warfarin, 3-(α-acetonylbenzyl)4-hydroxycoumarin]
AF patients [1]
  Myocardial Infarction: 0.6% (warfarin)
  Stroke and systemic embolism (per 100 patient years): 1.5% (warfarin)
[2]
  reduction of the risk of stroke compared to control: 64%
AF patients [3]; Warfarin vs. Ximelagatran
  Myocardial Infarction: 0.6% (warfarin)
AF patients [3]; [10]
  Stroke and systemic embolism (per 100 patient years): 2.3% (warfarin)
AF patients [4]; Warfarin vs. Ximelagatran
  Myocardial Infarction: 1.4% (warfarin)
AF patients [4]; [10]
  Stroke and systemic embolism (per 100 patient years): 1.2% (warfarin)
[5]; INR 2.0 to 3.0, method of Rosendaal
  mean time in therapeutic range: 64%
[5]; warfarin arm
  Stroke, systemic embolism, pulmonary embolism, myocardial infarction death or major bleed, Rate: 7.99 /100 Person Years
  ALT or AST >3xULN: 2.1%
  ALT or AST >3xULN with concurrent bilirubin >2xULN: 0.4%
  ALT or AST >3xULN with concurrent bilirubin >2xULN, number: 22
  ALT or AST >3xULN, number: 126
  Adverse Event: Arthralgia: 5.5%
  Adverse Event: Arthralgia, number: 328
  Adverse Event: Atrial fibrillation: 5.4%
  Adverse Event: Atrial fibrillation, number: 326
  Adverse Event: Back pain: 5.5%
  Adverse Event: Back pain, number: 331
  Adverse Event: Chest pain: 5.7%
  Adverse Event: Chest pain, number: 342
  Adverse Event: Cough: 5.8%
  Adverse Event: Cough, number: 345
  Adverse Event: Diarrhea: 5.5%
  Adverse Event: Diarrhea, number: 327
  Adverse Event: Dizziness: 9.3%
  Adverse Event: Dizziness, number: 555
  Adverse Event: Dyspepsia: 1.4%
  Adverse Event: Dyspepsia, number: 83
  Adverse Event: Dyspnoea: 9.2%
  Adverse Event: Dyspnoea, number: 550
  Adverse Event: Fatigue: 5.9%
  Adverse Event: Fatigue, number: 353
  Adverse Event: Nasopharyngitis: 5.5%
  Adverse Event: Nasopharyngitis, number: 327
  Adverse Event: Peripheral edema: 7.6%
  Adverse Event: Peripheral edema, number: 453
  Adverse Event: Upper respiratory tract infection: 5.0%
  Adverse Event: Upper respiratory tract infection, number: 297
  Adverse Event: Urinary tract infection: 5.3%
  Adverse Event: Urinary tract infection, number: 315
  All Death, Rate: 4.13 /100 Person Years
  Any Major Bleeding, Rate: 3.46 /100 Person Years
  Extracranial Bleeding, Rate: 2.73 /100 Person Years
  First Hospitalization, Rate: 27.5 /100 Person Years
  Intracranial Bleeding, Rate: 0.72 /100 Person Years
  Major Bleeding, Life threatening, Rate: 1.80 /100 Person Years
  Major Bleeding, Other Major, Rate: 1.80 /100 Person Years
  Major gastro-intestinal Bleeding, Rate: 1.03 /100 Person Years
  Major or Minor Bleeding, Rate: 23.92 /100 Person Years
  Minor Bleeding, Rate: 21.03 /100 Person Years
  Mortality rates (death from any cause): 4.13 % per year
  Myocardial Infarction, Rate: 0.54 /100 Person Years
  Myocardial infarction rate: 0.54 % per year
  Non-disabling Stroke Modified Rankin 0-2, Rate: 0.58 /100 Person Years
  Pulmonary embolism, Rate: 0.09 /100 Person Years
  Rates of hemorrhagic stroke: 0.38 % per year
  Rates of major hemorrhage / major bleeding: 3.46 % per year
  Reason for discontinuation: Gastrointestinal bleeding: XXX (0.9) %
  Reason for discontinuation: Gastrointestinal disorders (including pain, vomiting and diarrhea): XXX (0.8) %
  Reason for discontinuation: Outcome event: XXX (2.2) %
  Reason for discontinuation: Patient decision: XXX (6.2) %
  Reason for discontinuation: SAE: 1.6%
  Reason for discontinuation: SAE, number: 95
  Stroke or systemic embolism, Rate: 1.70 /100 Person Years
  Stroke, Hemorrhagic, Rate: 0.38 /100 Person Years
  Stroke, Rate: 1.58 /100 Person Years
  Study Drug Discontinuation At one year: XXXX (10) %
  Study Drug Discontinuation At two years: XXXX (19) %
  Vascular Death, Rate: 2.69 /100 Person Years
  hepatobiliary disorders (AE): 2.2%
  hepatobiliary disorders (AE), number: 132
  hepatobiliary disorders (SAE): 0.4%
  hepatobiliary disorders (SAE), number: 25
  net benefit-risk outcome (major vascular events, major bleeding and death) rate: 7.99 % per year
  rates of discontinuation at 2.5 years: 19%
  stroke or systemic embolism (primary outcome) rate: 1.70 % per year
[5]; warfarin arm, listed as warfarin
  Study Drug Discontinuation At one year: 10%

## [H]/N=C(/N)c1ccc(NCc2nc3cc(C(=O)N(CCC(=O)O)c4ccccn4)ccc3n2C)cc1 [Dabigatran]
[6]
  change in D-dimer levels: comparable to warfarin
[7]; 150 mg b.i.d.
  fatal major bleeds, number: 4
[7]; 300 mg q.d.
  fatal major bleeds, number: 1
[7]; all doses
  fatal bleeding events: 0.5 % per year
  fatal major bleeds, number: five
  intracranial bleed rate: 0.4 % per year
[7]; individual patients with LFT abnormalities
  Final Outcome/Comment: Fatal; also recorded: Recovered
[7]; [11]
  LFT abnormality ALT/ULN: >5x (4×) and >5x^# (2×) and >3x (5×) and >3x^#
  LFT abnormality AST/ULN: >5x^# (4×) and >5x (4×) and >3x (5×)
[7]; of the 16 on treatment cases
  LFT abnormality resolved after stopping of dabigatran, number of cases: 5
  LFT abnormality resolved with continuation of dabigatran, number of cases: 10
[8]; after multiple doses
  plasma half life: 12 to 17 h
[8]; human, in vivo
  time to steady-state: 2 to 3 days
[8]; oral administration
  time to peak levels: 2 to 3 h
[9]
  prolongation of activated partial thromboplastin time (aPTT), ecarin clotting time, and thrombin clotting time: dose dependent prolongation
[5]; 110 mg b.i.d.
  Myocardial Infarction, Rate: 0.73 /100 Person Years
  Rates of hemorrhagic stroke: 0.12 % per year
  Stroke, Ischemic or Unspecified, Rate: 1.35 /100 Person Years
  net benefit-risk outcome (major vascular events, major bleeding and death) rate: 7.37 % per year
  Stroke, systemic embolism, pulmonary embolism, myocardial infarction death or major bleed, Rate: 7.37 /100 Person Years
[5]; 150 mg b.i.d.
  Myocardial Infarction, Rate: 0.74 /100 Person Years
  Rates of hemorrhagic stroke: 0.10 % per year
  net benefit-risk outcome (major vascular events, major bleeding and death) rate: 7.22 % per year
  rates of stroke and systemic embolism compared to warfarin: lower rates
  Stroke, systemic embolism, pulmonary embolism, myocardial infarction death or major bleed, Rate: 7.22 /100 Person Years
[5]; Dabigatran 110 mg vs. Warfarin
  First Hospitalization, RR: 0.92
  Myocardial Infarction, RR: 1.35
  Non-disabling Stroke Modified Rankin 0-2, RR: 0.87
  Pulmonary embolism, RR: 1.26
  Stroke or systemic embolism, RR: 0.91
  Stroke, Hemorrhagic, RR: 0.31
  Stroke, Ischemic or Unspecified, RR: 1.12
  Stroke, RR: 0.92
[5]; Dabigatran 150 mg vs. 110 mg
  Stroke, Ischemic or Unspecified, RR: 0.68
  Stroke, RR: 0.70
[5]; Dabigatran 150 mg vs. Warfarin
  First Hospitalization, RR: 0.97
  Myocardial Infarction, RR: 1.38
  Non-disabling Stroke Modified Rankin 0-2, RR: 0.62
  Pulmonary embolism, RR: 1.61
  Stroke or systemic embolism, RR: 0.66
  Stroke, Hemorrhagic, RR: 0.26
  Stroke, Ischemic or Unspecified, RR: 0.76
  Stroke, RR: 0.64
[5]; both doses (110 mg and 150 mg b.i.d.)
  primary outcome compared to warfarin: non-inferior to warfarin
